Each compound was assayed against one or more of HDAC-4, HDAC-5, HDAC-6, HDAC-7, HDAC-8, HDAC-9, HDAC-10 and HDAC-11 (assay: Inhibition of histone deacetylase enzymatic activity (summary statement over isoforms)). Conditions: Table 3, selected examples; HDAC isoform not given.
Format: biochemical
Outline: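 HDAC enzyme mix with compound was preincubated 5 min at room temperature. Reaction was started at 37 °C with Boc-Lys(trifluoroacetyl)-AMC substrate and run 20-30 min. It was stopped with trypsin (1 mg/mL) plus a known HDAC inhibitor to release the fluorogenic AMC.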

Row | Compound | IC50 [µM]
1 | O=C(NO)C(c1ccccc1)c1ccc(NS(=O)(=O)c2ccc(Cl)cc2)cc1 (stereo not drawn) [Compound 2-92, 2-(4-(4-chlorophenylsulfonamido)phenyl)-N-hydroxy-2-phenylacetamide] | < 1
2 | O=C(NO)C(c1ccccc1)c1cccc(NS(=O)(=O)c2ccc(Cl)cc2)c1 (stereo not drawn) [Compound 2-93, 2-(3-(4-chlorophenylsulfonamido)phenyl)-N-hydroxy-2-phenylacetamide] | 1 to 15
3 | O=C(NO)C(c1ccccc1)c1cccc(C#Cc2ccccc2)c1 (stereo not drawn) [Compound 2-94, N-hydroxy-2-phenyl-2-(3-(phenylethynyl)phenyl)acetamide] | 1 to 15
4 | O=C(NO)C(c1ccccc1)c1cccc(C#Cc2cccnc2)c1 (stereo not drawn) [Compound 2-95, N-hydroxy-2-phenyl-2-(3-(pyridin-3-ylethynyl)phenyl)acetamide] | < 1
5 | O=C(NO)C(c1ccccc1)c1cccc(C#CCC2CCCC2)c1 (stereo not drawn) [Compound 2-96, 2-(3-(3-cyclopentylprop-1-ynyl)phenyl)-N-hydroxy-2-phenylacetamide] | < 1
6 | O=C(NO)C(c1ccccc1)c1ccc(C#Cc2ccccc2)cc1 (stereo not drawn) [Compound 2-97, N-hydroxy-2-phenyl-2-(4-(phenylethynyl)phenyl)acetamide] | < 1
7 | O=C(NO)C(c1ccccc1)c1ccc(C#CCC2CCCC2)cc1 (stereo not drawn) [Compound 2-98, 2-(4-(3-cyclopentylprop-1-ynyl)phenyl)-N-hydroxy-2-phenylacetamide] | < 1
8 | CCCCOc1ccc(C#Cc2ccc(C(C(=O)NO)c3ccccc3)cc2)cc1 (stereo not drawn) [Compound 2-99, 2-(4-((4-butoxyphenyl)ethynyl)phenyl)-N-hydroxy-2-phenylacetamide] | < 1
9 | CCCc1cccc(C(C(=O)NO)c2ccccc2)c1 (stereo not drawn) [Compound 2-101, N-hydroxy-2-phenyl-2-(3-propylphenyl)acetamide] | < 1
10 | O=C(NO)C(c1ccccc1)c1cccc(-c2ccc3c(c2)CCO3)c1 (stereo not drawn) [Compound 2-104, 2-(3-(2,3-dihydrobenzofuran-5-yl)phenyl)-N-hydroxy-2-phenylacetamide] | < 1
11 | O=C(NO)C(c1ccccc1)c1cccc(-c2ccccc2C(F)(F)F)c1 (stereo not drawn) [Compound 2-108, N-hydroxy-2-phenyl-2-(2′-(trifluoromethyl)biphenyl-3-yl)acetamide] | < 1
12 | O=C(NO)C(c1ccccc1)c1ccc(-c2ccc(Cl)cc2)cc1 (stereo not drawn) [Compound 2-112, 2-(4′-chlorobiphenyl-4-yl)-N-hydroxy-2-phenylacetamide] | < 1
13 | O=C(NO)C(c1ccccc1)c1ccc(-c2ccc3c(c2)CCO3)cc1 (stereo not drawn) [Compound 2-113, 2-(4-(2,3-dihydrobenzofuran-5-yl)phenyl)-N-hydroxy-2-phenylacetamide] | < 1
14 | COc1ccc(-c2ccc(C(C(=O)NO)c3ccccc3)cc2)cc1OC (stereo not drawn) [Compound 2-114, 2-(3′,4′-dimethoxybiphenyl-4-yl)-N-hydroxy-2-phenylacetamide] | < 1
15 | CCSc1ccc(-c2ccc(C(C(=O)NO)c3ccccc3)cc2)cc1 (stereo not drawn) [Compound 2-115, 2-(4′-(ethylthio)biphenyl-4-yl)-N-hydroxy-2-phenylacetamide] | < 1
16 | CN(C)C(=O)c1ccc(-c2ccc(C(C(=O)NO)c3ccccc3)cc2)cc1 (stereo not drawn) [Compound 2-116, 4′-(2-(hydroxyamino)-2-oxo-1-phenylethyl)-N,N-dimethylbiphenyl-4-carboxamide] | < 1
17 | O=C(NO)C(c1ccccc1)c1ccc(-c2ccc(Oc3ccccc3)cc2)cc1 (stereo not drawn) [Compound 2-117, N-hydroxy-2-(4′-phenoxybiphenyl-4-yl)-2-phenylacetamide] | < 1
18 | O=C(NO)C(c1ccccc1)c1cccc(N2CCN(Cc3ccncc3)CC2)c1 (stereo not drawn) [Compound 3-12, N-hydroxy-2-phenyl-2-(3-(4-(pyridin-4-ylmethyl)piperazin-1-yl)phenyl)acetamide] | < 1
19 | CC(=O)Nc1ccc(C(C(=O)NO)c2ccccc2)cc1 (stereo not drawn) [Compound 3-13, 2-(4-acetamidophenyl)-N-hydroxy-2-phenylacetamide] | < 1
20 | O=C(Nc1cccc(C(C(=O)NO)c2ccccc2)c1)c1ccnc(Cl)c1 (stereo not drawn) [Compound 3-14, 2-chloro-N-(3-(2-(hydroxyamino)-2-oxo-1-phenylethyl)phenyl)isonicotinamide] | 1 to 15
21 | CN(C)CCCOc1ccc(C(C(=O)NO)c2ccccc2)cc1 (stereo not drawn) [Compound 3-16, 2-(4-(3-(dimethylamino)propoxy)phenyl)-N-hydroxy-2-phenylacetamide] | < 1
22 | CC(COc1ccc(C(C(=O)NO)c2ccccc2)cc1)CN(C)C (stereo not drawn) [Compound 3-18, 2-(4-(3-(dimethylamino)-2-methylpropoxy)phenyl)-N-hydroxy-2-phenylacetamide] | 1 to 15
23 | O=C(NO)C(c1ccccc1)c1cccc(OCCN2CCCC2)c1 (stereo not drawn) [Compound 3-19, N-hydroxy-2-phenyl-2-(3-(2-(pyrrolidin-1-yl)ethoxy)phenyl)acetamide] | < 1
24 | CN1CCCC1CCOc1cccc(C(C(=O)NO)c2ccccc2)c1 (stereo not drawn) [Compound 3-20, N-hydroxy-2-(3-(2-(1-methylpyrrolidin-2-yl)ethoxy)phenyl)-2-phenylacetamide] | < 1
25 | O=C(NO)C(c1ccccc1)c1cccc(OC2CCCC2)c1 (stereo not drawn) [Compound 3-29, 2-(3-(cyclopentyloxy)phenyl)-N-hydroxy-2-phenylacetamide] | 1 to 15

Other lines, results leading:

Row | IC50 [µM] | Compound
26 | 1 to 15 | COc1ccc(S(=O)(=O)Nc2cccc(C(C(=O)NO)c3ccccc3)c2)cc1 (stereo not drawn) [Compound 2-91, N-hydroxy-2-(3-(4-methoxyphenylsulfonamido)phenyl)-2-phenylacetamide]
27 | 1 to 15 | O=C(NO)C(c1ccccc1)c1cccc(-c2ccc(Oc3ccccc3)cc2)c1 (stereo not drawn) [Compound 2-100, N-hydroxy-2-(4′-phenoxybiphenyl-3-yl)-2-phenylacetamide]
28 | < 1 | CCc1ccc(-c2cccc(C(C(=O)NO)c3ccccc3)c2)cc1 (stereo not drawn) [Compound 2-102, 2-(4′-ethylbiphenyl-3-yl)-N-hydroxy-2-phenylacetamide]
29 | < 1 | O=C(NO)C(c1ccccc1)c1cccc(-c2ccc(Cl)cc2)c1 (stereo not drawn) [Compound 2-103, 2-(4′-chlorobiphenyl-3-yl)-N-hydroxy-2-phenylacetamide]
30 | < 1 | CN(C)c1ccc(-c2cccc(C(C(=O)NO)c3ccccc3)c2)cc1 (stereo not drawn) [Compound 2-105, 2-(4′-(dimethylamino)biphenyl-3-yl)-N-hydroxy-2-phenylacetamide]
31 | < 1 | COc1ccc(-c2cccc(C(C(=O)NO)c3ccccc3)c2)cc1OC (stereo not drawn) [Compound 2-106, 2-(3′,4′-dimethoxybiphenyl-3-yl)-N-hydroxy-2-phenylacetamide]
32 | < 1 | CCSc1ccc(-c2cccc(C(C(=O)NO)c3ccccc3)c2)cc1 (stereo not drawn) [Compound 2-107, 2-(4′-(ethylthio)biphenyl-3-yl)-N-hydroxy-2-phenylacetamide]
33 | < 1 | CN(C)C(=O)c1ccc(-c2cccc(C(C(=O)NO)c3ccccc3)c2)cc1 (stereo not drawn) [Compound 2-109, 3′-(2-(hydroxyamino)-2-oxo-1-phenylethyl)-N,N-dimethylbiphenyl-4-carboxamide]
34 | < 1 | CS(=O)(=O)c1ccc(-c2cccc(C(C(=O)NO)c3ccccc3)c2)cc1 (stereo not drawn) [Compound 2-110, N-hydroxy-2-(4′-(methylsulfonyl)biphenyl-3-yl)-2-phenylacetamide]
35 | < 1 | CCc1ccc(-c2ccc(C(C(=O)NO)c3ccccc3)cc2)cc1 (stereo not drawn) [Compound 2-111, 2-(4′-ethylbiphenyl-4-yl)-N-hydroxy-2-phenylacetamide]
36 | < 1 | CC(C)=CCOc1cccc(C(C(=O)NO)c2ccccc2)c1 (stereo not drawn) [Compound 3-5, N-hydroxy-2-(3-(3-methylbut-2-enyloxy)phenyl)-2-phenylacetamide]
37 | < 1 | COc1ccc(COc2cccc(C(C(=O)NO)c3ccccc3)c2)cc1 (stereo not drawn) [Compound 3-6, N-hydroxy-2-(3-(4-methoxybenzyloxy)phenyl)-2-phenylacetamide]
38 | 1 to 15 | CC(Oc1cccc(C(C(=O)NO)c2ccccc2)c1)c1ccccc1 (stereo not drawn) [Compound 3-8, N-hydroxy-2-phenyl-2-(3-(1-phenylethoxy)phenyl)acetamide]
39 | < 1 | O=C(NO)C(c1ccccc1)c1cccc(OC/C=C/c2ccccc2)c1 (stereo not drawn) [Compound 3-9, (E)-2-(3-(cinnamyloxy)phenyl)-N-hydroxy-2-phenylacetamide]
40 | < 1 | O=C(NO)C(c1ccccc1)c1cccc(OCc2cccc(Cl)c2)c1 (stereo not drawn) [Compound 3-10, 2-(3-(3-chlorobenzyloxy)phenyl)-N-hydroxy-2-phenylacetamide]
41 | < 1 | CN(C)CCCOc1cccc(C(C(=O)NO)c2ccccc2)c1 (stereo not drawn) [Compound 3-15, 2-(3-(3-(dimethylamino)propoxy)phenyl)-N-hydroxy-2-phenylacetamide]
42 | < 1 | CC(COc1cccc(C(C(=O)NO)c2ccccc2)c1)CN(C)C (stereo not drawn) [Compound 3-17, 2-(3-(3-(dimethylamino)-2-methylpropoxy)phenyl)-N-hydroxy-2-phenylacetamide]
43 | 1 to 15 | COc1cccc(C(C(=O)NO)c2ccccc2)c1 (stereo not drawn) [Compound 3-21, N-hydroxy-2-(3-methoxyphenyl)-2-phenylacetamide]
44 | < 1 | CCOc1cccc(C(C(=O)NO)c2ccccc2)c1 (stereo not drawn) [Compound 3-22, 2-(3-ethoxyphenyl)-N-hydroxy-2-phenylacetamide]
45 | 1 to 15 | C=CCOc1cccc(C(C(=O)NO)c2ccccc2)c1 (stereo not drawn) [Compound 3-24, 2-(3-(allyloxy)phenyl)-N-hydroxy-2-phenylacetamide]
46 | 1 to 15 | O=C(NO)C(c1ccccc1)c1cccc(OCC2CC2)c1 (stereo not drawn) [Compound 3-25, 2-(3-(cyclopropylmethoxy)phenyl)-N-hydroxy-2-phenylacetamide]
47 | 1 to 15 | C=CCCOc1cccc(C(C(=O)NO)c2ccccc2)c1 (stereo not drawn) [Compound 3-26, 2-(3-(but-3-enyloxy)phenyl)-N-hydroxy-2-phenylacetamide]
48 | 1 to 15 | COCCOc1cccc(C(C(=O)NO)c2ccccc2)c1 (stereo not drawn) [Compound 3-27, N-hydroxy-2-(3-(2-methoxyethoxy)phenyl)-2-phenylacetamide]

From patent publication US9096565B2, “Inhibitors of histone deacetylase” (MethylGene Inc., priority 2007, dated 2015)
